Literature values as cited in paper PMC11956011, “An Amazing 30-Year Journey around the DABO Family: A Medicinal Chemistry Lesson on a Versatile Class of Non-nucleoside HIV-1 Reverse Transcriptase Inhibitors” (Journal of Medicinal Chemistry, 2025).
Where two headings read alike, the source gives them in different places.

Key:
[1] = tested on: K103N HIV-1 mutant strain; details: for Fold-resistance K103N (EC50): Fig 10, in brackets
[2] = tested on: HIV-1 RT (WT, recombinant)
[3] = tested on: Y188L HIV-1 mutant strain; details: for Fold-resistance Y188L (EC50): Fig 10, in brackets
[4] = tested on: IRLL98 clinical isolate (K101Q, Y181C, G190A); details: Fig 9
Y181I HIV-1 RT = details: for Fold-resistance Y181I RT (ID50): Fig 10, in brackets
HIV-1 = details: for IC50: read-out: IC50 (HIV-1 cytopathic effect in cells)
[5] = tested on: Y181C HIV-1 mutant strain; details: for EC50: Fig 10; for Fold-resistance Y181C (EC50): Fig 10, in brackets
L100I HIV-1 RT = details: for ID50: L100I: Fig 10; for Fold-resistance L100I RT (ID50): Fig 10, in brackets
[6] = Fig 9, read-out: EC50: NL4-3 wt
[7] = Fig 10, read-out: EC50: NL4-3 wt
[8] = read-out: EC50 against WT HIV-1

COc1ccc(CCCSc2nc(O)c(C)c(Cc3c(Cl)cccc3Cl)n2)cc1 [compound 78]
EC50 (HIV-1 NL4-3 wt; [6]): 0.44 nM | CC50 (mock-infected cells; Fig 9): 1000 nM | EC50 ([1]; Fig 9): > 1000 nM | ID50: WT ([2]; Fig 9): 37 nM | EC50 ([3]; Fig 9): > 1000 nM | EC50 [4]: 110 nM | ID50: Y181I (Y181I HIV-1 RT; Fig 9): 300 nM

COc1ccc(CSc2nc(O)c(C)c(Cc3c(F)cccc3F)n2)cc1 [compound 79]
EC50 (HIV-1 NL4-3 wt; [6]): 26 nM | CC50 (mock-infected cells; Fig 9): > 64000 nM | EC50 ([1]; Fig 9): 690 nM | ID50: WT ([2]; Fig 9): 7 nM | EC50 ([3]; Fig 9): 10000 nM | EC50 [4]: 690 nM

CCc1c(Cc2ccccc2Br)nc(SCc2ccc(OC)cc2)[nH]c1=O [compound 87]
CC50 (mock-infected cells; Fig 9): 165000 nM | SI (HIV-1; Fig 9): 717 | IC50 (HIV-1; Fig 9): 230 nM

CCc1c(Cc2ccccc2Br)nc(SCc2ccc([N+](=O)[O-])cc2)[nH]c1=O [compound 88]
CC50 (mock-infected cells; Fig 9): > 272000 nM | SI (HIV-1; Fig 9): > 368 | IC50 (HIV-1; Fig 9): 740 nM

CCc1c(Cc2cccc(Br)c2)nc(SCc2ccc(OC)cc2)[nH]c1=O [compound 89]
CC50 (mock-infected cells; Fig 9): 201000 nM | SI (HIV-1; Fig 9): 718 | IC50 (HIV-1; Fig 9): 280 nM

CCc1c(Cc2cc(C)cc(C)c2)nc(SCc2ccc(OC)cc2)[nH]c1=O [compound 90]
CC50 (mock-infected cells; Fig 9): > 317000 nM | SI (HIV-1; Fig 9): > 2642 | IC50 (HIV-1; Fig 9): 120 nM

CCc1c(Cc2cc(C)cc(C)c2)nc(SCc2ccc([N+](=O)[O-])cc2)[nH]c1=O [compound 91]
CC50 (mock-infected cells; Fig 9): > 305000 nM | SI (HIV-1; Fig 9): > 1906 | IC50 (HIV-1; Fig 9): 160 nM

CC(=O)c1ccc(Cn2cc(CSc3nc(Cc4c(Cl)cccc4Cl)c(C)c(=O)[nH]3)nn2)cc1 [compound 92]
EC50 (HIV-1; Fig 9): 3860 nM | SI (HIV-1; Fig 9): 8

Cc1c(Cc2c(Cl)cccc2Cl)nc(SCc2cn(Cc3ccc(S(N)(=O)=O)cc3)nn2)[nH]c1=O [compound 93]
EC50 (HIV-1; Fig 9): 3220 nM | SI (HIV-1; Fig 9): 30

COc1ccc(Cn2cc(CSc3nc(Cc4c(Cl)cccc4Cl)c(C)c(=O)[nH]3)nn2)cc1 [compound 94]
SI (HIV-1; Fig 9): 6

CCc1c(Cc2c(Cl)cccc2Cl)nc(SCC(=O)c2ccccc2)[nH]c1=O [compound 101]
EC50 (HIV-1 NL4-3 wt; [7]): 7 nM | CC50 (mock-infected cells; Fig 10): > 52000 nM | EC50 ([1]; Fig 10): 1200 nM | Fold-resistance K103N (EC50) [1]: 171 | ID50: WT ([2]; Fig 10): 71 nM | EC50 ([3]; Fig 10): 5000 nM | Fold-resistance Y188L (EC50) [3]: 714 | ID50: Y181I (Y181I HIV-1 RT; Fig 10): 330 nM | Fold-resistance Y181I RT (ID50) (Y181I HIV-1 RT): 5 | SI (HIV-1; Fig 10): > 7429 | EC50 [5]: 46 nM | Fold-resistance Y181C (EC50) [5]: 7 | ID50: L100I (L100I HIV-1 RT): 3540 nM | Fold-resistance L100I RT (ID50) (L100I HIV-1 RT): 50

CC(C)c1c(Cc2c(Cl)cccc2Cl)nc(SCC(=O)c2ccccc2)[nH]c1=O [compound 102]
EC50 (HIV-1 NL4-3 wt; [7]): 4 nM | CC50 (mock-infected cells; Fig 10): > 56000 nM | EC50 ([1]; Fig 10): 5100 nM | Fold-resistance K103N (EC50) [1]: 1275 | ID50: WT ([2]; Fig 10): 31 nM | EC50 ([3]; Fig 10): 5500 nM | Fold-resistance Y188L (EC50) [3]: 1375 | ID50: Y181I (Y181I HIV-1 RT; Fig 10): 16800 nM | Fold-resistance Y181I RT (ID50) (Y181I HIV-1 RT): 542 | SI (HIV-1; Fig 10): > 14000 | EC50 [5]: 110 nM | Fold-resistance Y181C (EC50) [5]: 27 | ID50: L100I (L100I HIV-1 RT): 10100 nM | Fold-resistance L100I RT (ID50) (L100I HIV-1 RT): 326

CCc1c(Cc2c(F)cccc2Cl)nc(SCC(=O)c2ccc(F)cc2)[nH]c1=O [compound 103]
EC50 (HIV-1 NL4-3 wt; [7]): 5 nM | CC50 (mock-infected cells; Fig 10): > 57000 nM | EC50 ([1]; Fig 10): 4140 nM | Fold-resistance K103N (EC50) [1]: 828 | ID50: WT ([2]; Fig 10): 33 nM | EC50 ([3]; Fig 10): > 57000 nM | ID50: Y181I (Y181I HIV-1 RT; Fig 10): 380 nM | Fold-resistance Y181I RT (ID50) (Y181I HIV-1 RT): 12 | SI (HIV-1; Fig 10): > 11400 | EC50 [5]: 1930 nM | Fold-resistance Y181C (EC50) [5]: 386 | ID50: L100I (L100I HIV-1 RT): 5600 nM | Fold-resistance L100I RT (ID50) (L100I HIV-1 RT): 170

CCc1c(Cc2c(F)cccc2F)nc(SCC(=O)c2ccccc2)[nH]c1=O [compound 104]
EC50 (HIV-1 NL4-3 wt; [7]): 12 nM | CC50 (mock-infected cells; Fig 10): 56000 nM | EC50 ([1]; Fig 10): 1300 nM | Fold-resistance K103N (EC50) [1]: 108 | ID50: WT ([2]; Fig 10): 43 nM | EC50 ([3]; Fig 10): > 56000 nM | ID50: Y181I (Y181I HIV-1 RT; Fig 10): 820 nM | Fold-resistance Y181I RT (ID50) (Y181I HIV-1 RT): 19 | SI (HIV-1; Fig 10): 4667 | EC50 [5]: 200 nM | Fold-resistance Y181C (EC50) [5]: 17 | ID50: L100I (L100I HIV-1 RT): 5400 nM | Fold-resistance L100I RT (ID50) (L100I HIV-1 RT): 126

Cc1c(Cc2c(Cl)cccc2Cl)nc(SCC(=O)Nc2ccc(Cl)cc2)[nH]c1=O [compound 105]
CC50 (mock-infected cells; Fig 10): > 267000 nM | SI (HIV-1; Fig 10): > 836

Cc1c(Cc2c(Cl)cccc2Cl)nc(SCC(=O)Nc2ccc(Br)cc2)[nH]c1=O [compound 106]
CC50 (mock-infected cells; Fig 10): > 244000 nM | SI (HIV-1; Fig 10): > 1326

Cc1c(Cc2c(Cl)cccc2Cl)nc(SCC(=O)Nc2ccc(F)c(F)c2)[nH]c1=O [compound 108]
CC50 (mock-infected cells; Fig 10): > 266000 nM | SI (HIV-1; Fig 10): > 387

COc1ccc(CSc2nc(C(C)c3c(F)cccc3F)c(C)c(=O)[nH]2)cc1 (centres unmarked) [compound 140, 6-[1-(2,6-difluorophenyl)ethyl]-2-[(4-methoxybenzyl)thio]-5-methyl-4(3H)-pyrimidinone]
EC50 (HIV-1 NL4-3 wt; [8]): 0.025 nM

Cc1c(C(C)c2c(F)cccc2F)nc(SCc2ccc(C#N)cc2)[nH]c1=O (centres unmarked) [compound 141]
EC50 (HIV-1 NL4-3 wt; [8]): 7.8 nM

Cc1c(C(C)c2c(F)cccc2F)nc(SCc2ccc([N+](=O)[O-])cc2)[nH]c1=O (centres unmarked) [compound 142]
EC50 (HIV-1 NL4-3 wt; [8]): 3.3 nM

COc1cc(F)c(C(=O)c2ccnc(Nc3ccc(C#N)cc3)n2)c(F)c1 [compound 169]
EC50: Y181C ([5]; Fig 12, DAPY-DABO carbonyl hybrids): no activity

CCN(CC)CCc1cc(=O)[nH]c(SC)n1 [compound 184]
CC50 (mock-infected cells): 250 µg/mL
